Earlier results on 1 compound are cited in patent US11020355B2, “Method of encapsulating cannabinoids in phospholipid carriers” (NuVessl, Inc., priority 2018, dated 2021).

Like-named read-outs stand apart in the source and are kept apart here.

The conditions of data set [1]: oral administration.
Details of data set [2]: AUC (0-10.5 hours): unit not given beside the values. Conditions: oromucosal, historic data.

For the compound `C=C(C)[C@@H]1CCC(C)=C[C@H]1c1c(O)cc(CCCCC)cc1O` [CBD, cannabidiol], in data set [1], the bioavailability is 6%-15%. Besides, the C max in data set [2] (10 mg CBD) was 3.0 microgram per liter (nanogram per mL); in data set [2] (15 mg CBD) it was 3.7 microgram per liter (nanogram per mL). In addition, in data set [2] (5-15 mg CBD), the “AUC (0-10.5 hours)” value is listed as 4.1-12.6. In addition, the Tmax in data set [2] (5-15 mg CBD) is 3.6 to 4.5 h.

The Tmax is the time at which the peak concentration occurs.
